In US5643776A, “Insect diagnostic and control compositions” (The Regents of the University of California, priority 1992, dated 1997):

How the values were obtained:
[1] = target: T1, juvenile hormone esterase (JHE) of Heliothis virescens, wild type (Heliothis virescens, UniProt P12992); experiment: Kinetics of juvenile hormone hydrolysis by juvenile hormone esterase; type: biochemical
T1 sequence (P12992 20-564): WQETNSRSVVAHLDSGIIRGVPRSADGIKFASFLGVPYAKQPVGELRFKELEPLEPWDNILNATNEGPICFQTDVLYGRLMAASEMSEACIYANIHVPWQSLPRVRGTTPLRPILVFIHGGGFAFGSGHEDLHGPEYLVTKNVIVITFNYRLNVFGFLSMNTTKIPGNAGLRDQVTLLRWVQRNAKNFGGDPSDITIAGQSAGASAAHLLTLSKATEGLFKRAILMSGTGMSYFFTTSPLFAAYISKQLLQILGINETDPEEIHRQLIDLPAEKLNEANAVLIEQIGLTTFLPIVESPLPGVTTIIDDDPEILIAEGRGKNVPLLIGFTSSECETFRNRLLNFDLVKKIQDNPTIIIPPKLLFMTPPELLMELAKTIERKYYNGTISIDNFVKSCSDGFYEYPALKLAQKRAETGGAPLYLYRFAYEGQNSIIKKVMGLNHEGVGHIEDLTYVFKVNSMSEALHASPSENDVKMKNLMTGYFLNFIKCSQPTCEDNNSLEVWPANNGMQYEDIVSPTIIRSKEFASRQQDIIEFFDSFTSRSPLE

[2] = target: T2, juvenile hormone hemolymph carrier protein of H. virescens (Heliothis virescens, UniProt Q25175); experiment: Binding of juvenile hormone by the hemolymph carrier protein; conditions: juvenile hormone bound by the carrier protein; for H. virescens
T2 sequence (Q25175 19-242): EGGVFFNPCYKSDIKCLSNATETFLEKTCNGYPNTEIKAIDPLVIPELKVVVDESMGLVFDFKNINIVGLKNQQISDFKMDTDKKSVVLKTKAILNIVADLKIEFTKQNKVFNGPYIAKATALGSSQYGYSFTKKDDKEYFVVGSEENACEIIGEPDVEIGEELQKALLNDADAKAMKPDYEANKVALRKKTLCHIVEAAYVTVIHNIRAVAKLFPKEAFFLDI

juvenile hormone was tested, and the kCAT/KM ratio ([1]; substrate JH, JHE of H. virescens and of several other species) was > 10^8, the Km ([1]; substrate juvenile hormone) was 0.06 µM and the Kd [2] was 610 nM.
